Experimental findings from patent US12202835B2, “Substituted aromatic ring-linked dioxinoquinazolines and dioxinoquinolines as kinase inhibitors” (BEIJING SCITECH-MQ PHARMACEUTICALS LIMITED, priority 2018, dated 2025) are described below.

The assay has as its system Ba/F3 LMNA-NTRK1-G595R cells. Kind of assay: Assay for inhibiting the proliferation of Ba/F3 LMNA-NTRK1-G595R cells (CCK-8). The class given is cell-based. The following applies: Mus musculus, BaF3. On the procedure:
In particular, the method of the assay of small molecular compounds for inhibiting cell proliferation is as follows: • 1. Cells cultured to a logarithmic growth phase (adherent cells need to be digested with trypsin and neutralized) were taken, pipetted evenly, transferred to a 15 mL centrifuge tube, and centrifuged at 1000 rpm at room temperature for 4 minutes; • 2. The supernatant was discarded; 5 mL of complete medium was added and pipetted evenly; 10 μL of cell suspension was taken out, mixed well with 10 μL of 0.4% trypan blue, and counted under a cell counter; the proportion of living cells was ensured to be above 90%; • 3. 80 μL of cell suspension per well was seeded into a 96-well plate according to the conditions shown in the attached table, and cultured overnight; in the outer 36 wells of the 96-well plate, no cells were added but only sterile water was added; only the inner 60 wells were used for cell assay and control; • 4. 5×compound dilution: the compounds were serially diluted 3-fold to obtain a total of 9 concentrations; 80-fold overall dilution was completed with complete medium, the resulting concentration was 5 times the final drug concentration, and DMSO concentration was 1.25%; • 5. 20 μL of the corresponding compounds with different concentration gradients were added to each well of assay wells of the 96-well plate; 20 μL of complete medium was added to positive and negative control wells and shaken well; and the final concentration of DMSO in each well was 0.25%; • 6. After 72 hours of incubation, 10 μL of CCK-8 reagent was added to each well and further incubated at 37° C. for 1-2 hours; and the OD value was read at 450 nm; • 7. Cell survival rate (%)=[(As−Ab)/(Ac−Ab)]*100% • As: Assay well (medium containing cells, CCK-8, compound), • Ac: Control well (medium containing cells, CCK-8), • Ab: Blank well (CCK-8, medium without cell and compound), • 8. The values were imported into Graphpad Prism 5 software for IC50 calculation.

`COCCOc1cc2nccc(Oc3ccc(NC(=O)c4cn(C)c(=O)n(-c5ccc(F)cc5)c4=O)cc3)c2c2c1OCCO2` [Example 147, N-(4-((5-(2-methoxyethoxy)-2,3-dihydro-[1,4]dioxino[2,3-f]quinolin-10-yl)oxy)phenyl)-3-(4-fluorophenyl)-1-methyl-2,4-dioxo-1,2,3,4-tetrahydropyrimidine-5-carboxamide] registered a half-maximal inhibitory concentration (IC50) of 50 to 200 nM.

With `CCn1cc(C(=O)Nc2ccc(Oc3ccnc4cc(OC)c5c(c34)OCCO5)cc2)c(=O)n(-c2ccc(F)cc2)c1=O` [Example 146, N-(4-((5-methoxy-2,3-dihydro-[1,4]dioxino[2,3-f]quinolin-10-yl)oxy)phenyl)-3-(4-fluorophenyl)-1-ethyl-2,4-dioxo-1,2,3,4-tetrahydropyrimidine-5-carboxamide], the IC50 lay in the range of 200 to 1000 nM.

In the case of `CC(C)n1cc(C(=O)Nc2ccc(Oc3ccnc4cc(OCC(C)(C)O)c5c(c34)OCCO5)c(F)c2)c(=O)n(-c2ccc(F)cc2)c1=O` [Example 122, N-(3-fluoro-4-((5-(2-hydroxy-2-methylpropoxy)-2,3-dihydro-[1,4]dioxino[2,3-f]quinolin-10-yl)oxy)phenyl)-3-(4-fluorophenyl)-1-isopropyl-2,4-dioxo-1,2,3,4-tetrahydropyrimidine-5-carboxamide], the IC50 lay in the range of 200 to 1000 nM.

Consider `Cn1cc(C(=O)Nc2ccc(Oc3ncnc4cc(OCCCN5CCOCC5)c5c(c34)OCCO5)c(F)c2)c(=O)n(-c2ccc(F)cc2)c1=O` [Example 30, N-(3-fluoro-4-((5-(3-morpholinopropoxy)-2,3-dihydro-[1,4]dioxino[2,3-f]quinazolin-10-yl)oxy)phenyl)-3-(4-fluorophenyl)-1-methyl-2,4-dioxo-1,2,3,4-tetrahydropyrimidine-5-carboxamide], for which the IC50 was in the range of 200 to 1000 nM.

In turn, `COCCOc1cc2nccc(Oc3ccc(NC(=O)c4cn(C)c(=O)n(-c5ccc(F)cc5)c4=O)c(F)c3)c2c2c1OCCO2` [Example 155, N-(2-fluoro-4-((5-(2-methoxyethoxy)-2,3-dihydro-[1,4]dioxino[2,3-f]quinolin-10-yl)oxy)phenyl)-3-(4-fluorophenyl)-1-methyl-2,4-dioxo-1,2,3,4-tetrahydropyrimidine-5-carboxamide] gave an IC50 of at most 50 nM.

The compound `Cn1cc(C(=O)Nc2ccc(Oc3ccnc4cc(OCCCN5CCOCC5)c5c(c34)OCCO5)cc2Cl)c(=O)n(-c2ccc(F)cc2)c1=O` [Example 98, N-(2-chloro-4-((5-(3-morpholinopropoxy)-2,3-dihydro-[1,4]dioxino[2,3-f]quinolin-10-yl)oxy)phenyl)-3-(4-fluorophenyl)-1-methyl-2,4-dioxo-1,2,3,4-tetrahydropyrimidine-5-carboxamide] had an IC50 of 50 to 200 nM.

Regarding `COc1cc2ncnc(Oc3ccc(NC(=O)c4cn(C)c(=O)n(-c5ccc(F)cc5)c4=O)cc3F)c2c2c1OCCO2` [Example 29, N-(3-fluoro-4-((5-methoxy-2,3-dihydro-[1,4]dioxino[2,3-f]quinazolin-10-yl)oxy)phenyl)-3-(4-fluorophenyl)-1-methyl-2,4-dioxo-1,2,3,4-tetrahydropyrimidine-5-carboxamide], the IC50 is 200 to 1000 nM.

For the compound `CC(C)n1cc(C(=O)Nc2ccc(Oc3ccnc4cc(OCCCN5CCOCC5)c5c(c34)OCCO5)c(Cl)c2)c(=O)n(-c2ccc(F)cc2)c1=O` [Example 97, N-(3-chloro-4-((5-(3-morpholinopropoxy)-2,3-dihydro-[1,4]dioxino[2,3-f]quinolin-10-yl)oxy)phenyl)-3-(4-fluorophenyl)-1-isopropyl-2,4-dioxo-1,2,3,4-tetrahydropyrimidine-5-carboxamide], the half-inhibitory concentration (IC50) lay in the range of 50 to 200 nM.

For the compound `CCn1cc(C(=O)Nc2ccc(Oc3ccnc4cc(OCC(C)(C)O)c5c(c34)OCCO5)cc2)c(=O)n(-c2ccc(F)cc2)c1=O` [Example 150, N-(4-((5-(2-hydroxy-2-methylpropoxy)-2,3-dihydro-[1,4]dioxino[2,3-f]quinolin-10-yl)oxy)phenyl)-3-(4-fluorophenyl)-1-ethyl-2,4-dioxo-1,2,3,4-tetrahydropyrimidine-5-carboxamide], the IC50 is over 1000 nM.

Turning to `CCn1cc(C(=O)Nc2ccc(Oc3ccnc4cc(OCCOC)c5c(c34)OCCO5)cc2F)c(=O)n(-c2ccc(F)cc2)c1=O` [Example 156, N-(2-fluoro-4-((5-(2-methoxyethoxy)-2,3-dihydro-[1,4]dioxino[2,3-f]quinolin-10-yl)oxy)phenyl)-3-(4-fluorophenyl)-1-ethyl-2,4-dioxo-1,2,3,4-tetrahydropyrimidine-5-carboxamide], the IC50 fell in the range of 50 to 200 nM.

On to `CC(C)n1cc(C(=O)Nc2ccc(Oc3ccnc4cc(OCCCN(C)C5CCC5)c5c(c34)OCCO5)c(F)c2)c(=O)n(-c2ccc(F)cc2)c1=O` [Example 96, N-(3-fluoro-4-((5-(3-((cyclobutyl)(methyl)amino)propoxy)-2,3-dihydro-[1,4]dioxino[2,3-f]quinolin-10-yl)oxy)phenyl)-3-(4-fluorophenyl)-1-isopropyl-2,4-dioxo-1,2,3,4-tetrahydropyrimidine-5-carboxamide], for which the IC50 was in the range of 200 to 1000 nM.

Compound `Cn1cc(C(=O)Nc2ccc(Oc3ccnc4cc(OCCCN5CCCCC5)c5c(c34)OCCO5)cc2Cl)c(=O)n(-c2ccc(F)cc2)c1=O` [Example 137, N-(2-chloro-4-((5-((3-piperidin-1-yl)propoxy)-2,3-dihydro-[1,4]dioxino[2,3-f]quinolin-10-yl)oxy)phenyl)-3-(4-fluorophenyl)-1-methyl-2,4-dioxo-1,2,3,4-tetrahydropyrimidine-5-carboxamide] had an IC50 of at most 50 nM.

Regarding `CCn1cc(C(=O)Nc2ccc(Oc3ccnc4cc(OCCOC)c5c(c34)OCCO5)cc2)c(=O)n(-c2ccc(F)cc2)c1=O` [Example 148, N-(4-((5-(2-methoxyethoxy)-2,3-dihydro-[1,4]dioxino[2,3-f]quinolin-10-yl)oxy)phenyl)-3-(4-fluorophenyl)-1-ethyl-2,4-dioxo-1,2,3,4-tetrahydropyrimidine-5-carboxamide], the IC50 was in the range of 200 to 1000 nM.

Consider `CC(C)n1cc(C(=O)Nc2ccc(Oc3ccnc4cc(OCCCN5CCOCC5)c5c(c34)OCCO5)c(F)c2)c(=O)n(-c2ccc(F)cc2)c1=O` [Example 16, N-(3-fluoro-4-((5-(3-morpholinopropoxy)-2,3-dihydro-[1,4]dioxino[2,3-f]quinolin-10-yl)oxy)phenyl)-3-(4-fluorophenyl)-1-isopropyl-2,4-dioxo-1,2,3,4-tetrahydropyrimidine-5-carboxamide], for which the IC50 fell in the range of 200 to 1000 nM.

For `Cn1cc(C(=O)Nc2ccc(Oc3ccnc4cc(OCC(C)(C)O)c5c(c34)OCCO5)cc2Cl)c(=O)n(-c2ccc(F)cc2)c1=O` [Example 141, N-(2-chloro-4-((5-(2-hydroxy-2-methylpropoxy)-2,3-dihydro-[1,4]dioxino[2,3-f]quinolin-10-yl)oxy)phenyl)-3-(4-fluorophenyl)-1-methyl-2,4-dioxo-1,2,3,4-tetrahydropyrimidine-5-carboxamide], the IC50 was in the range of 50 to 200 nM.

Consider `Cn1cc(C(=O)Nc2ccc(Oc3ccnc4ccc5c(c34)OCCO5)cc2F)c(=O)n(-c2ccc(F)cc2)c1=O` [Example 162, N-(4-((2,3-dihydro-[1,4]dioxino[2,3-f]quinolin-10-yl)oxy)-2-fluorophenyl)-3-(4-fluorophenyl)-1-methyl-2,4-dioxo-1,2,3,4-tetrahydropyrimidine-5-carboxamide], for which the IC50 was 50 to 200 nM.

In the case of `COc1cc2nccc(Oc3ccc(NC(=O)c4cn(C)c(=O)n(-c5ccc(F)cc5)c4=O)c(Cl)c3)c2c2c1OCCO2` [Example 125, N-(2-chloro-4-((5-methoxy-2,3-dihydro-[1,4]dioxino[2,3-f]quinolin-10-yl)oxy)phenyl)-3-(4-fluorophenyl)-1-methyl-2,4-dioxo-1,2,3,4-tetrahydropyrimidine-5-carboxamide], the IC50 is at most 50 nM.

Compound `COc1cc2nccc(Oc3ccc(NC(=O)c4cn(C)c(=O)n(-c5ccc(F)cc5)c4=O)cc3)c2c2c1OCCO2` [Example 145, N-(4-((5-methoxy-2,3-dihydro-[1,4]dioxino[2,3-f]quinolin-10-yl)oxy)phenyl)-3-(4-fluorophenyl)-1-methyl-2,4-dioxo-1,2,3,4-tetrahydropyrimidine-5-carboxamide] showed an IC50 of over 1000 nM.

The compound `CCn1cc(C(=O)Nc2ccc(Oc3ccnc4cc(OCCCN5CCOCC5)c5c(c34)OCCO5)c(F)c2)c(=O)n(-c2ccc(F)cc2)c1=O` [Example 38, N-(3-fluoro-4-((5-(3-morpholinopropoxy)-2,3-dihydro-[1,4]dioxino[2,3-f]quinolin-10-yl)oxy)phenyl)-3-(4-fluorophenyl)-1-ethyl-2,4-dioxo-1,2,3,4-tetrahydropyrimidine-5-carboxamide] returned a 50% inhibitory concentration (IC50) of 200 to 1000 nM.

Turning to `CCOc1cc2nccc(Oc3ccc(NC(=O)c4cn(C)c(=O)n(-c5ccc(F)cc5)c4=O)c(Cl)c3)c2c2c1OCCO2` [Example 129, N-(2-chloro-4-((5-ethoxy-2,3-dihydro-[1,4]dioxino[2,3-f]quinolin-10-yl)oxy)phenyl)-3-(4-fluorophenyl)-1-methyl-2,4-dioxo-1,2,3,4-tetrahydropyrimidine-5-carboxamide], the IC50 was at most 50 nM.

The term IC50 denotes the midpoint of a concentration-inhibition curve. Low values mean greater potency in that assay, high ones weaker potency in that assay.
